Experimental data published in patent US5185366A, “Method for treatment and prevention of diseases caused by enveloped viruses, including herpes simplex virus types 1 and 2 diseases, using 3,4-dihydroxy-2H-benzopyran-2H-one” (Ohio State University Research Foundation, priority 1990, dated 1993).
Where two headings read alike, the source gives them in different places.

How the values were obtained:
[1] = tested on: Poliovirus-2; assay: organism not typed; assay type: cell-based
[2] = tested on: HSV-2; assay: HSV-2 plaque size, extracellular treatment; assay type: cell-based, Herpes simplex virus type 2; settings: for Mean plaque diameter (±SD), Treated: extracellularly; for reduction in plaque size: virus treated extracellularly
[3] = tested on: HSV-2; assay: HSV-2 plaque size, intracellular treatment; assay type: cell-based, Herpes simplex virus type 2
Procedure: For antiviral studies the diameter of plaques is determined with the aid of a calibrated micrometer slide and a microscope eye piece having scaled markings. A simple random sample is taken and all plaque diameters are measured for both experimental and control groups. Plaque diameter also serves as an indication of inhibition of viral replication. […] Monolayers are then infected, washed with EBSS and | maintenance medium with or without compound added. Cells are stained afte | 48 hours with crystal violet and the plaque diameters are determined with | the aid of a micrometer.

[4] = tested on: Poliovirus-2; assay: organism not typed; assay type: cell-based; remark: listed apart in the source
[5] = tested on: HSV-2; assay: Extracellular activity, inhibition of plaque forming units, HSV-2; settings: for extracellular antiviral activity: HSV-2, 10 μM; for Plaque Forming Units Mean ± SD: extracellular
[6] = tested on: HSV; assay: Selectivity among the viruses tested; assay type: cell-based, Herpes simplex virus
[7] = tested on: HSV-1; assay: Intracellular activity, inhibition of plaque forming units, HSV-1; assay type: cell-based, Herpes simplex virus type 1; settings: for intracellular antiviral activity: HSV-1, 10 μM; for Plaque Forming Units Mean ± SD: intracellular
[8] = Inhibition of cell growth (microscopic cell count); assay type: cell-based, Buffalo green monkey; settings: monkey, bgm-70 cells, read-out: % Reduction of cell growth
Procedure: a MASHII cell harvester and placed in a scintillation counter to determin
incorporation of labelled compound and level of toxicity. BGM 70 cells ar
seeded at a concentration of […] per well in a 24well tissue cultur
plate. Cells are planted in 2 mL of growth medium with or without the tes
compound and are incubated at 37° C. for 38 hours. At 24 hours
medium is removed from onehalf of the plates and the cells are fixed and
stained with crystal violet. The remaining cultures are fixed and stained
^b BGM 70 cells are counted microscopically and comparisons are made.
Experiments are performed blindly by assigning each compound concentratio
a letter code. The code is broken after the cells are counted.
The effect of the compounds on the inhibition of cell growth is determined using BGM-70 cells grown in vitro. For this assay, BGM 70 cells are seeded at a concentration of approximately 70 cells per well in 24-well tissue culture plates. Cells are planted in 2 ml of growth medium with or without the test compound and are incubated at 37° C. for 48 hours. At 24 hours, cells from one half of the plates are fixed and stained with crystal violet. The remaining cultures are fixed and stained at 48 hours. Cells are counted microscopically and comparisons are made between non-treated (control) and treated cells.

[9] = tested on: HSV-1; assay: Extracellular activity, inhibition of plaque forming units, HSV-1; settings: for extracellular antiviral activity: HSV-1, 10 μM; for Plaque Forming Units Mean ± SD: extracellular
[10] = tested on: VSV; assay: microbe, parasite or virus in culture; assay type: cell-based, Vesicular stomatitis virus
[11] = tested on: VSV; assay: microbe, parasite or virus in culture; assay type: cell-based, Vesicular stomatitis virus; remark: listed apart in the source
[12] = tested on: Buffalo green monkey kidney (BGM 70) cells; assay: [3H]-thymidine uptake cytotoxicity; assay type: cell-based; settings: for inhibition at 0.4 µM / inhibition at 1.6 µM / inhibition at 2.5 µM / inhibition at 10 µM: Chlorocebus sabaeus, read-out: % Inhibition of [3H]-Thymidine Incorporated; for inhibition at 0.4 µM: 0.4 μmol/L; for inhibition at 1.6 µM: 1.6 μmol/L; for inhibition at 2.5 µM: 2.5 μmol/L; for inhibition at 10 µM: 10.0 μmol/L; for toxicity ([3H]-thymidine uptake and/or cell growth): at 10 μM
[13] = tested on: HSV-2; assay: Intracellular activity, inhibition of plaque forming units, HSV-2; assay type: cell-based, Herpes simplex virus type 2; settings: for intracellular antiviral activity: HSV-2, 10 μM; for Plaque Forming Units Mean ± SD: intracellular
[14] = listed as 3,4-dihydroxy-2H-1-benzopyran-2-one

O=c1oc2ccccc2c(O)c1O [Compound 5, 3,4-dihydroxy-2H-1-benzopyran-2-one]
extracellular antiviral activity ([1]; poliovirus-2, n=2): no antiviral activity | inhibition at 10 µM ([1]; read-out: % Inhibition of Plaque Forming Units, Extracellularly): 2.7% | inhibition at 10 µM ([2]; Human alphaherpesvirus 2, extracellularly, 10 μM, relative viral conc 1, read-out: % Inhib (mean plaque diameter)): 6% | inhibition at 10 µM ([2]; Human alphaherpesvirus 2, extracellularly, 10 μM, relative viral conc 10, read-out: % Inhib (mean plaque diameter)): 1% | inhibition at 20 µM ([2]; Human alphaherpesvirus 2, extracellularly, 20 μM, relative viral conc 10, read-out: % Inhib (mean plaque diameter)): 1% | Mean plaque diameter (±SD), Treated ([2]; 10 μM, relative viral conc 1): 449 ± 70 micrometers | Mean plaque diameter (±SD), Treated ([2]; 10 μM, relative viral conc 10): 500 ± 100 micrometers | Mean plaque diameter (±SD), Treated ([2]; 20 μM, relative viral conc 10): 486 ± 80 micrometers | reduction in plaque size ([2]; 10 μM): no significant reduction | reduction in plaque size ([2]; 10 μM, listed as 3,4-dihydroxy-2H-1-benzopyran-2-one): no reduction in plaque size | inhibition at 10 µM ([3]; Human alphaherpesvirus 2, 48 h, viral-infected cells, 10 μM, read-out: reduction in plaque size): 56% | inhibition at 10 µM ([3]; Human alphaherpesvirus 2, intracellularly, 10 μM, relative viral conc 10, read-out: % Inhib (mean plaque diameter)): 56% | inhibition at 20 µM ([3]; Human alphaherpesvirus 2, intracellularly, 20 μM, relative viral conc 10, read-out: % Inhib (mean plaque diameter)): 60% | Mean plaque diameter (±SD), Treated ([3]; intracellularly, 10 μM, relative viral conc 1): 213 ± 79 micrometers | Mean plaque diameter (±SD), Treated ([3]; intracellularly, 10 μM, relative viral conc 10): 221 ± 89 micrometers | Mean plaque diameter (±SD), Treated ([3]; intracellularly, 20 μM, relative viral conc 1): 205 ± 90 micrometers | Mean plaque diameter (±SD), Treated ([3]; intracellularly, 20 μM, relative viral conc 10): 202 ± 88 micrometers | intracellular antiviral activity ([4]; poliovirus-2, n=2): no antiviral activity | inhibition at 10 µM ([4]; read-out: % Inhibition of Plaque Forming Units, Intracellularly): 2.1% | extracellular antiviral activity [5]: shows both intra- and extra- cellular antiviral activity | extracellular antiviral activity [5, 14]: exhibits both intracellular and extracellular activity | inhibition at 10 µM ([5]; Human alphaherpesvirus 2, extracellular, HSV-2 + 1 × Cmpd (10 μM), relative viral conc 10): 64% | inhibition at 10 µM ([5]; Human alphaherpesvirus 2, extracellular, HSV-2 + 1 × Cmpd (10 μM), relative viral conc 100): 77% | inhibition at 20 µM ([5]; Human alphaherpesvirus 2, extracellular, HSV-2 + 2 × Cmpd (20 μM), relative viral conc 10): 96% | inhibition at 20 µM ([5]; Human alphaherpesvirus 2, extracellular, HSV-2 + 2 × Cmpd (20 μM), relative viral conc 100): 95% | inhibition at 10 µM ([5]; Human alphaherpesvirus 2, read-out: % Inhibition of PFU, EA (extracellular activity), HSV-2, 10.0 μmol/L): 81% | inhibition at 10 µM ([5]; Human alphaherpesvirus 2, read-out: % Inhibition of Plaque Forming Units, Extracellularly, HSV-2, 10 μM (Table IV)): 81 ± 4% | inhibition at 10 µM ([5]; Human alphaherpesvirus 2, read-out: reduction (PFU), extracellularly, HSV-2, 10 μM level, P<0.01): 76 to 98% | inhibition, extracellular treatment of HSV-2 ([5]; comparison with clofibric acid, P<0.01): 63+/-4% | Plaque Forming Units Mean ± SD ([5]; HSV-2 + 1 × Cmpd (10 μM), relative viral conc 10): 5.3 ± 1.5 | Plaque Forming Units Mean ± SD ([5]; HSV-2 + 1 × Cmpd (10 μM), relative viral conc 100): 49.3 ± 4.5 | Plaque Forming Units Mean ± SD ([5]; HSV-2 + 2 × Cmpd (20 μM), relative viral conc 10): 0.6 ± 0.6 | Plaque Forming Units Mean ± SD ([5]; HSV-2 + 2 × Cmpd (20 μM), relative viral conc 100): 9.7 ± 1.5 | selectivity for HSV among the viruses tested [6]: selective for HSV among the viruses tested | intracellular antiviral activity [7]: shows both intra- and extra- cellular antiviral activity | intracellular antiviral activity [7, 14]: exhibits both intracellular and extracellular activity | inhibition at 10 µM ([7]; Human alphaherpesvirus 1, HSV-1, 10 μM, P<0.01, read-out: inhibition (PFU), intracellularly): 25 to 39% | inhibition at 10 µM ([7]; Human alphaherpesvirus 1, HSV-1, 10 μM, read-out: % Inhibition of Plaque Forming Units, Intracellularly): 38.4 ± 5.7% | inhibition at 10 µM ([7]; Human alphaherpesvirus 1, intracellular, HSV-1: 1 × Cmpd (10 μM), relative viral conc 10, read-out: % Inhibition): 25% | inhibition at 10 µM ([7]; Human alphaherpesvirus 1, intracellular, HSV-1: 1 × Cmpd (10 μM), relative viral conc 100, read-out: % Inhibition): 38% | Plaque Forming Units Mean ± SD ([7]; HSV-1: 1 × Cmpd (10 μM), relative viral conc 10): 11.0 ± 1.0 | Plaque Forming Units Mean ± SD ([7]; HSV-1: 1 × Cmpd (10 μM), relative viral conc 100): 106.6 ± 9.3 | inhibition at 24 h, 10 µM ([8]; 24 h, 10.0 μmol/L): 0% | inhibition at 24 h, 50 µM ([8]; 24 h, 50.0 μmol/L): 5.9 ± 0.5% | inhibition at 24 h, 100 µM ([8]; 24 h, 100.0 μmol/L): 47.8 ± 9% | inhibition at 48 h, 10 µM ([8]; 48 h, 10.0 μmol/L): 0.4% | inhibition at 48 h, 50 µM ([8]; 48 h, 50.0 μmol/L): 8.7 ± 2.8% | inhibition at 48 h, 100 µM ([8]; 48 h, 100.0 μmol/L): 54.1 ± 3.2% | extracellular antiviral activity [9]: shows both intra- and extra- cellular antiviral activity | extracellular antiviral activity [9, 14]: exhibits both intracellular and extracellular activity | inhibition at 10 µM ([9]; Human alphaherpesvirus 1, extracellular, HSV-1 + 1 × Cmpd (10 μM), relative viral conc 10): 82% | inhibition at 10 µM ([9]; Human alphaherpesvirus 1, extracellular, HSV-1 + 1 × Cmpd (10 μM), relative viral conc 100): 76% | inhibition at 20 µM ([9]; Human alphaherpesvirus 1, extracellular, HSV-1 + 2 × Cmpd (20 μM), relative viral conc 10): 98% | inhibition at 20 µM ([9]; Human alphaherpesvirus 1, extracellular, HSV-1 + 2 × Cmpd (20 μM), relative viral conc 100): 95% | inhibition at 10 µM ([9]; Human alphaherpesvirus 1, read-out: % Inhibition of Plaque Forming Units, Extracellularly, HSV-1, 10 μM): 76.4 ± 2.2% | inhibition at 10 µM ([9]; Human alphaherpesvirus 1, read-out: reduction (PFU), extracellularly, HSV-1, 10 μM level, P<0.01): 76 to 98% | Plaque Forming Units Mean ± SD ([9]; HSV-1 + 1 × Cmpd (10 μM), relative viral conc 10): 2.6 ± 1.6 | Plaque Forming Units Mean ± SD ([9]; HSV-1 + 1 × Cmpd (10 μM), relative viral conc 100): 40.6 ± 3.8 | Plaque Forming Units Mean ± SD ([9]; HSV-1 + 2 × Cmpd (20 μM), relative viral conc 10): 0.3 ± 0.5 | Plaque Forming Units Mean ± SD ([9]; HSV-1 + 2 × Cmpd (20 μM), relative viral conc 100): 9.3 ± 1.5 | extracellular antiviral activity ([10]; VSV, n=2): no antiviral activity | inhibition at 10 µM ([10]; Vesicular stomatitis virus, read-out: % Inhibition of Plaque Forming Units, Extracellularly): 0% | intracellular antiviral activity ([11]; VSV, n=2): no antiviral activity | inhibition at 10 µM ([11]; Vesicular stomatitis virus, read-out: % Inhibition of Plaque Forming Units, Intracellularly): 0% | inhibition at 0.4 µM ([12]; 24 h): 0% | inhibition at 1.6 µM ([12]; 24 h): 0% | inhibition at 2.5 µM ([12]; 24 h): 0% | inhibition at 10 µM ([12]; 24 h): 28.4 ± 7.6% | inhibition at 0.4 µM ([12]; 48 h): 0% | inhibition at 1.6 µM ([12]; 48 h): 0% | inhibition at 2.5 µM ([12]; 48 h): 0% | inhibition at 10 µM ([12]; 48 h): 26.3 ± 6.3% | inhibition at 0.4 µM ([12]; 72 h): 0% | inhibition at 1.6 µM ([12]; 72 h): 0% | inhibition at 2.5 µM ([12]; 72 h): 0% | inhibition at 10 µM ([12]; 72 h): 0% | toxicity ([3H]-thymidine uptake and/or cell growth) [12]: no toxicity | toxicity ([3H]-thymidine uptake and/or cell growth) [12, 14]: non-toxic | intracellular antiviral activity [13]: shows both intra- and extra- cellular antiviral activity | intracellular antiviral activity [13, 14]: exhibits both intracellular and extracellular activity | inhibition at 10 µM ([13]; Human alphaherpesvirus 2, 10 μM, one experiment, n=3 wells, P<0.07, read-out: inhibition (PFU), virus-infected cells): 26 ± 4% | inhibition at 10 µM ([13]; Human alphaherpesvirus 2, HSV-2, 10 μM (Table IV), read-out: % Inhibition of Plaque Forming Units, Intracellularly): 36 ± 4.7% | inhibition at 10 µM ([13]; Human alphaherpesvirus 2, HSV-2, 10 μM, P<0.01, read-out: inhibition (PFU), intracellularly): 25 to 39% | inhibition at 10 µM ([13]; Human alphaherpesvirus 2, HSV-2, 10.0 μmol/L, read-out: % Inhibition of PFU, IA (intracellular activity)): 36% | inhibition at 10 µM ([13]; Human alphaherpesvirus 2, intracellular, HSV-2: 1 × Cmpd (10 μM), relative viral conc 10, read-out: % Inhibition): 33% | inhibition at 10 µM ([13]; Human alphaherpesvirus 2, intracellular, HSV-2: 1 × Cmpd (10 μM), relative viral conc 100, read-out: % Inhibition): 39% | anti-HSV-2 properties ([13]; at noncytotoxic concentrations): exhibited anti-HSV-2 properties at noncytotoxic concentrations | Plaque Forming Units Mean ± SD ([13]; HSV-2: 1 × Cmpd (10 μM), relative viral conc 10): 14.3 ± 1.1 | Plaque Forming Units Mean ± SD ([13]; HSV-2: 1 × Cmpd (10 μM), relative viral conc 100): 153.6 ± 7.4
